Drawing on PubChem BioAssay AID1745844 (Carcinogenic Potency Database (CPDB), 2022), this text covers TD50 and carcinogen call for nine molecules.

In the data set the test system is rodent lifetime carcinogenesis bioassay, tumor incidence TD50. Put plainly: chronic cancer bioassays in animals – CPDB, compiled studies (AID 1745844).

The structures appear in SMILES notation. Active and inactive are the calls of the source. How the calls were made is not given here.

Broadly, the TD50 is the dose at which the toxic effect under study appears in half of the subjects. In the case of `O=NN1CCOC1`, the TD50 is, setting by setting: (hamster, strain Syrian Golden, females, by gavage, site: forestomach, lesion: several types, types named in the paper, dosed 30 weeks, study length 104 weeks) 2.61 mg/kg/day; (hamster, strain Syrian Golden, males, by gavage, site: any site (literature study), lesion: several types, types named in the paper, dosed 35 weeks, study length 65 weeks) 0.267 mg/kg/day; (hamster, strain Syrian Golden, males, by gavage, site: liver, lesion: cholangiocarcinoma, dosed 35 weeks, study length 65 weeks) 0.471 mg/kg/day; (hamster, strain Syrian Golden, males, by gavage, site: liver, lesion: hepatocellular adenoma, dosed 35 weeks, study length 65 weeks) 0.949 mg/kg/day; (hamster, strain Syrian Golden, males, by gavage, site: liver, lesion: hepatocellular carcinoma, dosed 35 weeks, study length 65 weeks) 2.63 mg/kg/day; (hamster, strain Syrian Golden, males, by gavage, site: lung, lesion: carcinoma, dosed 35 weeks, study length 65 weeks) 14.8 mg/kg/day.

For the molecule `Cn1nc(CO)nc1NCCCOc1cccc(CN2CCCCC2)c1`, the TD50 was 272 mg/kg/day (rat, strain Charles River CD (Sprague-Dawley), females, in feed, site: stomach, glandular, fundic region, lesion: carcinoid tumor, malignant, dosed 115 weeks, study length 115 weeks) and 2010 mg/kg/day (rat, strain Charles River CD (Sprague-Dawley), males, in feed, site: stomach, glandular, fundic region, lesion: carcinoid tumor, malignant, dosed 115 weeks, study length 115 weeks).

For the molecule `CCNC(=O)N(C=O)CCN(C)C`, the TD50 runs as follows: (rat, strain Fischer 344, females, by gavage, site: cervix, lesion: adenocarcinoma, dosed 37 weeks, study length 102 weeks) 5.35 mg/kg/day; (rat, strain Fischer 344, females, by gavage, site: lung, lesion: one or several types, types not named, dosed 37 weeks, study length 102 weeks) 5.35 mg/kg/day; (rat, strain Fischer 344, females, by gavage, site: mammary gland, lesion: adenocarcinoma, dosed 37 weeks, study length 102 weeks) 3.39 mg/kg/day; (rat, strain Fischer 344, females, by gavage, site: mammary gland, lesion: adenoma, dosed 37 weeks, study length 102 weeks) 11.2 mg/kg/day; (rat, strain Fischer 344, females, by gavage, site: mammary gland, lesion: fibroadenoma, dosed 37 weeks, study length 102 weeks) 0.704 mg/kg/day; (rat, strain Fischer 344, females, by gavage, site: uterus, lesion: adenoma, dosed 37 weeks, study length 102 weeks) 11.2 mg/kg/day. Moreover, the TD50 is 1.41 mg/kg/day (rat, strain Fischer 344, females, by gavage, site: uterus, lesion: endometrial polyp, dosed 37 weeks, study length 102 weeks); 2.37 mg/kg/day (rat, strain Fischer 344, males, by gavage, site: lung, lesion: one or several types, types not named, dosed 37 weeks, study length 102 weeks); 1.92 mg/kg/day (rat, strain Fischer 344, males, by gavage, site: skin, lesion: keratoacanthoma, dosed 37 weeks, study length 102 weeks).

`OB(O)O`: where the note is “mouse, strain B6C3F1, females, in feed, site: any site (literature study), lesion: several types, types named in the paper, dosed 103 weeks, study length 105 weeks”, the carcinogen call is “negative (inactive)”. Also, the TD50 is, setting by setting: (mouse, strain B6C3F1, females, in feed, site: liver, lesion: hepatocellular adenoma + hepatocellular carcinoma + neoplastic nodule, dosed 103 weeks, study length 105 weeks) 31000 mg/kg/day; (mouse, strain B6C3F1, females, in feed, site: lung, lesion: alveolar/bronchiolar adenoma + alveolar/bronchiolar carcinoma, dosed 103 weeks, study length 105 weeks) 4190 mg/kg/day; (mouse, strain B6C3F1, males, in feed, site: any site (literature study), lesion: several types, types named in the paper, dosed 103 weeks, study length 105 weeks) 500 mg/kg/day; (mouse, strain B6C3F1, males, in feed, site: liver, lesion: hepatocellular adenoma + hepatocellular carcinoma + neoplastic nodule, dosed 103 weeks, study length 105 weeks) 638 mg/kg/day; (mouse, strain B6C3F1, males, in feed, site: liver, lesion: hepatocellular adenoma + hepatocellular carcinoma, dosed 103 weeks, study length 105 weeks) 638 mg/kg/day (inactive); (mouse, strain B6C3F1, males, in feed, site: liver, lesion: hepatocellular carcinoma, dosed 103 weeks, study length 105 weeks) 1120 mg/kg/day. In addition, the TD50 amounted to 38600 mg/kg/day (mouse, strain B6C3F1, males, in feed, site: lung, lesion: alveolar/bronchiolar adenoma + alveolar/bronchiolar carcinoma, dosed 103 weeks, study length 105 weeks); 706 mg/kg/day (mouse, strain B6C3F1, males, in feed, site: subcutaneous tissue, lesion: fibrosarcoma + fibroma + neurofibrosarcoma + sarcoma, NOS, dosed 103 weeks, study length 105 weeks); 1070 mg/kg/day (mouse, strain B6C3F1, males, in feed, site: subcutaneous tissue, lesion: fibrosarcoma + neurofibrosarcoma + sarcoma, NOS, dosed 103 weeks, study length 105 weeks).

Take `[O]=[W](=[O])([OH])[OH]`: the carcinogen call is, setting by setting: (rat, strain Long-Evans BLU:(LE), females, in drinking water, site: any site (literature study), lesion: malignant tumor, dosed 149 weeks, study length 149 weeks) “negative (inactive)”; (rat, strain Long-Evans BLU:(LE), females, in drinking water, site: any site (literature study), lesion: several types, types named in the paper, dosed 149 weeks, study length 149 weeks) “negative (inactive)”. The TD50 by setting is: (rat, strain Long-Evans BLU:(LE), males, in drinking water, site: any site (literature study), lesion: malignant tumor, dosed 136 weeks, study length 136 weeks) 87.7 mg/kg/day (inactive); (rat, strain Long-Evans BLU:(LE), males, in drinking water, site: any site (literature study), lesion: several types, types named in the paper, dosed 136 weeks, study length 136 weeks) 40.1 mg/kg/day (inactive).

As for `O=C(O)c1cc(O)c(O)c(O)c1`, the carcinogen call reads like this: (rat, strain F344/DuCrj, males, in feed, site: forestomach, lesion: squamous-cell carcinoma, dosed 60 weeks, study length 60 weeks) “negative (inactive)”; (rat, strain F344/DuCrj, males, in feed, site: forestomach, lesion: squamous-cell papilloma, dosed 60 weeks, study length 60 weeks) “negative (inactive)”.

Consider `CC#N`, for which the carcinogen call was “negative (inactive)” (mouse, strain B6C3F1, females, inhaled, site: any site (literature study), lesion: several types, types named in the paper, dosed 103 weeks, study length 105 weeks) and “negative (inactive)” (mouse, strain B6C3F1, males, inhaled, site: any site (literature study), lesion: several types, types named in the paper, dosed 103 weeks, study length 104 weeks). Besides, the TD50 is 90.4 mg/kg/day (mouse, strain B6C3F1, males, inhaled, site: liver, lesion: hepatocellular adenoma + hepatoblastoma + hepatocellular carcinoma, dosed 103 weeks, study length 104 weeks); 318 mg/kg/day (mouse, strain B6C3F1, males, inhaled, site: lung, lesion: alveolar/bronchiolar adenoma + alveolar/bronchiolar carcinoma, dosed 103 weeks, study length 104 weeks); 11.5 mg/kg/day (inactive) (rat, strain Fischer 344, females, inhaled, site: mammary gland, lesion: carcinoma + fibroadenoma, dosed 103 weeks, study length 104 weeks); 16.9 mg/kg/day (rat, strain Fischer 344, males, inhaled, site: adrenal medulla, lesion: pheochromocytoma benign, bilateral + pheochromocytoma, benign, dosed 103 weeks, study length 104 weeks); 14.8 mg/kg/day (rat, strain Fischer 344, males, inhaled, site: adrenal medulla, lesion: pheochromocytoma benign, bilateral + pheochromocytoma, malignant + pheochromocytoma, benign, dosed 103 weeks, study length 104 weeks); 168 mg/kg/day (rat, strain Fischer 344, males, inhaled, site: liver, lesion: hepatocellular adenoma + hepatoblastoma + hepatocellular carcinoma, dosed 103 weeks, study length 104 weeks). Also, the TD50 by setting is: (rat, strain Fischer 344, males, inhaled, site: liver, lesion: hepatocellular adenoma + hepatocellular carcinoma, dosed 103 weeks, study length 104 weeks) 168 mg/kg/day; (rat, strain Fischer 344, males, inhaled, site: liver, lesion: hepatocellular adenoma, dosed 103 weeks, study length 104 weeks) 156 mg/kg/day; (rat, strain Fischer 344, males, inhaled, site: liver, lesion: hepatocellular carcinoma, dosed 103 weeks, study length 104 weeks) 398 mg/kg/day; (rat, strain Fischer 344, males, inhaled, site: skin, lesion: basal-cell adenoma + keratoacanthoma + trichoepithelioma, dosed 103 weeks, study length 104 weeks) 81.6 mg/kg/day; (rat, strain Fischer 344, males, inhaled, site: skin, lesion: keratoacanthoma, dosed 103 weeks, study length 104 weeks) 127 mg/kg/day.

In the case of `NC(=O)NNc1ccccc1`, the TD50 (mouse, strain Swiss albino, females, in drinking water, site: liver, lesion: angioma, dosed 79 weeks, study length 79 weeks) was 2670 mg/kg/day (inactive); the TD50 (mouse, strain Swiss albino, females, in drinking water, site: liver, lesion: angiosarcoma, dosed 79 weeks, study length 79 weeks) was 1980 mg/kg/day (inactive); the TD50 (mouse, strain Swiss albino, females, in drinking water, site: lung, lesion: adenocarcinoma, dosed 79 weeks, study length 79 weeks) turned out to be 1250 mg/kg/day; the TD50 (mouse, strain Swiss albino, females, in drinking water, site: lung, lesion: adenoma, dosed 79 weeks, study length 79 weeks) worked out at 150 mg/kg/day; the TD50 (mouse, strain Swiss albino, females, in drinking water, site: lung, lesion: several types, types named in the paper, dosed 79 weeks, study length 79 weeks) was 155 mg/kg/day; the TD50 (mouse, strain Swiss albino, males, in drinking water, site: liver, lesion: angiosarcoma, dosed 79 weeks, study length 79 weeks) was 2000 mg/kg/day (inactive). Also, the TD50 runs as follows: (mouse, strain Swiss albino, males, in drinking water, site: liver, lesion: several types, types named in the paper, dosed 79 weeks, study length 79 weeks) 1790 mg/kg/day; (mouse, strain Swiss albino, males, in drinking water, site: lung, lesion: adenoma, dosed 79 weeks, study length 79 weeks) 158 mg/kg/day; (mouse, strain Swiss albino, males, in drinking water, site: lung, lesion: several types, types named in the paper, dosed 79 weeks, study length 79 weeks) 176 mg/kg/day.

On to `O=[N+]([O-])c1cc(N(CCO)CCO)ccc1NCCO`, for which the TD50 reads like this: (mouse, strain B6C3F1, females, in feed, site: any site (literature study), lesion: several types, types named in the paper, dosed 104 weeks, study length 105 weeks) 42000 mg/kg/day (inactive); (mouse, strain B6C3F1, females, in feed, site: liver, lesion: hepatocellular adenoma + hepatocellular carcinoma + neoplastic nodule, dosed 104 weeks, study length 105 weeks) 19000 mg/kg/day; (mouse, strain B6C3F1, males, in feed, site: all sites, lesion: malignant lymphoma, histiocytic type + malignant lymphoma, mixed type + malignant lymphoma, lymphocytic type, dosed 104 weeks, study length 105 weeks) 4040 mg/kg/day; (mouse, strain B6C3F1, males, in feed, site: all sites, lesion: malignant lymphoma, lymphocytic type, dosed 104 weeks, study length 105 weeks) 5450 mg/kg/day; (mouse, strain B6C3F1, males, in feed, site: any site (literature study), lesion: several types, types named in the paper, dosed 104 weeks, study length 105 weeks) 5020 mg/kg/day; (mouse, strain B6C3F1, males, in feed, site: liver, lesion: hepatocellular adenoma + hepatocellular carcinoma + neoplastic nodule, dosed 104 weeks, study length 105 weeks) 6550 mg/kg/day. For the same molecule, the TD50 by setting is: (mouse, strain B6C3F1, males, in feed, site: skin + subcutaneous tissue, lesion: fibrosarcoma + fibroma, dosed 104 weeks, study length 105 weeks) 970 mg/kg/day (inactive); (rat, strain Fischer 344, females, in feed, site: any site (literature study), lesion: several types, types named in the paper, dosed 103 weeks, study length 104 weeks) 3.13e+06 mg/kg/day; (rat, strain Fischer 344, females, in feed, site: liver, lesion: hepatocellular adenoma + hepatocellular carcinoma + neoplastic nodule, dosed 103 weeks, study length 104 weeks) 8150 mg/kg/day; (rat, strain Fischer 344, females, in feed, site: liver, lesion: hepatocellular carcinoma + neoplastic nodule, dosed 103 weeks, study length 104 weeks) 8150 mg/kg/day (inactive); (rat, strain Fischer 344, males, in feed, site: liver, lesion: hepatocellular adenoma + hepatocellular carcinoma + neoplastic nodule, dosed 103 weeks, study length 104 weeks) 20300 mg/kg/day; (rat, strain Fischer 344, males, in feed, site: thyroid gland, lesion: c-cell carcinoma, dosed 103 weeks, study length 104 weeks) 1990 mg/kg/day (inactive).
